This series has as its system rodent carcinogenicity bioassays, tumor incidence. As to the kind of experiment: CCRIS carcinogenicity studies. The procedure, abridged:
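Archive of carcinogenicity, mutagenicity, tumor promotion and tumor inhibition results drawn from journals, NCI reports and other sources, expert-reviewed; covers 1985-2011 and is no longer updated.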

The source made the active and inactive calls. No rule for the calls is given here.

Consider `c1ccc2c(c1)c1c(c3cccnc32)O1`, for which the carcinogen call is, setting by setting: (Species: MOUSE, Strain/Sex: CD-1/FEMALE, Route: INTRAPERITONEAL, Dose: 0, 5, 10 AND 20 µL OF A 0.05 MOLAR SOLUTION ON DAYS 1, 8 AND 15 OF LIFE RESPECTIVELY (TOTAL DOSE: 1.75 UMOL) (STUDY DURA, Dose: 0, 5, 10 AND 20 µL OF A 0.05 MOLAR SOLUTION ON DAYS 1, 8 AND 15 OF LIFE RESPECTIVELY (TOTAL DOSE: 1.75 UMOL) (STUDY DURA) “inactive; negative”; (Species: MOUSE, Strain/Sex: CD-1/MALE, Route: INTRAPERITONEAL, Dose: 0, 5, 10 AND 20 µL OF A 0.05 MOLAR SOLUTION ON DAYS 1, 8 AND 15 OF LIFE RESPECTIVELY (TOTAL DOSE: 1.75 UMOL) (STUDY DURA, Dose: 0, 5, 10 AND 20 µL OF A 0.05 MOLAR SOLUTION ON DAYS 1, 8 AND 15 OF LIFE RESPECTIVELY (TOTAL DOSE: 1.75 UMOL) (STUDY DURA) “inactive; negative”.
Regarding `CCCl`, the carcinogen call runs as follows: (Species: MOUSE, Strain/Sex: B6C3F1/FEMALE, Route: INHALATION, Dose: 0, 15000 PPM IN AIR 6 HR/D 5 D/WK FOR 100 WK (STUDY DURATION: 100 WK), Tumor Site: Type of Lesion: LIVER: HEPATOCELLULAR CARCINOMA, LIVER: HEPATOCELLULAR ADENOMA OR CARCINOMA, UTERUS: CARCINOMA, Tumor Site: Type of Lesion: LIVER: HEPATOCELLULAR CARCINOMA, LIVER: HEPATOCELLULAR ADENOMA OR CARCINOMA, UTERUS: CARCINOMA) “active; positive”; (Species: Mouse, Strain/Sex: B6C3F1/Female (50/Group), Route: Inhalation, Dose: 0, 15,000 ppm 6 hr/d, 5 d/wk for 100 wk, Tumor Site: Type of Lesion: Uterus: carcinoma (2% vs 90%, p<10-8), Uterus: lymphoma (2% vs 14%, p=0.03), Liver: adenoma and carcinoma (6% vs 17%, p=, Tumor Site: Type of Lesion: Uterus: carcinoma (2% vs 90%, p<10-8), Uterus: lymphoma (2% vs 14%, p=0.03), Liver: adenoma and carcinoma (6% vs 17%, p=) “active; positive”; (Species: Mouse, Strain/Sex: B6C3F1/Male (50/Group), Route: Inhalation, Dose: 0, 15,000 ppm 6 hr/d, 5 d/wk for 100 wk) “inactive; negative”; (Species: RAT, Strain/Sex: F344/FEMALE, Route: INHALATION, Dose: 0, 15000 PPM IN AIR 6 HR/D 5 D/WK FOR 102 WK (STUDY DURATION: 102 WK), Tumor Site: Type of Lesion: BRAIN: ASTROCYTOMA) “equivocal”; (Species: RAT, Strain/Sex: F344/MALE, Route: INHALATION, Dose: 0, 15000 PPM IN AIR 6 HR/D 5 D/WK FOR 102 WK (STUDY DURATION: 102 WK), Tumor Site: Type of Lesion: SKIN: TRICHOEPITHELIOMA, SEBACEOUS GLAND ADENOMA OR BASAL CELL CARCINOMA) “equivocal”; (Species: Rat, Strain/Sex: F344/Female (50/Group), Route: Inhalation, Dose: 0, 15,000 ppm 6 hr/d, 5 d/wk for 102 wk) “inactive; negative”. In addition, under “Species: Rat, Strain/Sex: F344/Male (50/Group), Route: Inhalation, Dose: 0, 15,000 ppm 6 hr/d, 5 d/wk for 102 wk”, the carcinogen call was “inactive; negative”.
In the case of `O[C@H]1C=CC=C[C@@H]1O`, the carcinogen call is, setting by setting: (Species: MOUSE, Strain/Sex: SWISS/FEMALE, Route: INTRAPERITONEAL, Dose: 0, 50 UMOL ADMINISTERED AS 3 UNEQUAL DOSES (1/7, 2/7, AND 4/7 OF THE TOTAL DOSE) OVER A 2-WK PERIOD (STUDY DURATION: 28) “inactive; negative”; (Species: MOUSE, Strain/Sex: SWISS/MALE, Route: INTRAPERITONEAL, Dose: 0, 50 UMOL ADMINISTERED AS 3 UNEQUAL DOSES (1/7, 2/7, AND 4/7 OF THE TOTAL DOSE) OVER A 2-WK PERIOD (STUDY DURATION: 28) “inactive; negative”.
Take `CC(C)NCCCC1(C(N)=O)c2ccccc2-c2ccccc21`: the carcinogen call reads like this: (Species: MOUSE, Strain/Sex: B6C3F1/FEMALE, Route: ORAL, Dose: 0, 0.02, 0.04, 0.08% IN DIET FOR APPROXIMATE DAILY DOSES OF 0, 27, 53, 113 MG/KG (STUDY DURATION: 2 YR), Dose: 0, 0.02, 0.04, 0.08% IN DIET FOR APPROXIMATE DAILY DOSES OF 0, 27, 53, 113 MG/KG (STUDY DURATION: 2 YR)) “inactive; negative”; (Species: MOUSE, Strain/Sex: B6C3F1/MALE, Route: ORAL, Dose: 0, 0.02, 0.04, 0.08% IN DIET FOR APPROXIMATE DAILY DOSES OF 0, 27, 53, 113 MG/KG (STUDY DURATION: 2 YR), Dose: 0, 0.02, 0.04, 0.08% IN DIET FOR APPROXIMATE DAILY DOSES OF 0, 27, 53, 113 MG/KG (STUDY DURATION: 2 YR)) “inactive; negative”; (Species: RAT, Strain/Sex: F344/FEMALE, Route: ORAL, Dose: 0, 0.02, 0.04, 0.08% IN DIET FOR APPROXIMATE DAILY DOSES OF 0, 9, 18, 37 MG/KG (STUDY DURATION: 2 YR), Dose: 0, 0.02, 0.04, 0.08% IN DIET FOR APPROXIMATE DAILY DOSES OF 0, 9, 18, 37 MG/KG (STUDY DURATION: 2 YR)) “inactive; negative”; (Species: RAT, Strain/Sex: F344/MALE, Route: ORAL, Dose: 0, 0.02, 0.04, 0.08% IN DIET FOR APPROXIMATE DAILY DOSES OF 0, 9, 18, 37 MG/KG (STUDY DURATION: 2 YR), Dose: 0, 0.02, 0.04, 0.08% IN DIET FOR APPROXIMATE DAILY DOSES OF 0, 9, 18, 37 MG/KG (STUDY DURATION: 2 YR)) “inactive; negative”.
For `O=Nc1ccc(Nc2ccccc2)cc1`, the carcinogen call is “inactive; negative” (Species: MOUSE, Strain/Sex: B6C3F1/FEMALE, Route: ORAL, Dose: 0, 4254, 9000 PPM IN DIET, TWA, Dose: 0, 4254, 9000 PPM IN DIET, TWA); “active; positive” (Species: MOUSE, Strain/Sex: B6C3F1/MALE, Route: ORAL, Dose: 0, 4254, 9000 PPM IN DIET, TWA, Dose: 0, 4254, 9000 PPM IN DIET, TWA, Tumor Site: Type of Lesion: LIVER: HEPATOCELLULAR ADENOMA OR CARCINOMA); “inactive; negative” (Species: RAT, Strain/Sex: F344/FEMALE, Route: ORAL, Dose: 0, 2500, 5000 PPM IN DIET, Dose: 0, 2500, 5000 PPM IN DIET); “active; positive” (Species: RAT, Strain/Sex: F344/MALE, Route: ORAL, Dose: 0, 2500, 5000 PPM IN DIET, Dose: 0, 2500, 5000 PPM IN DIET, Tumor Site: Type of Lesion: LIVER: HEPATOCELLULAR CARCINOMA OR NEOPLASTIC NODULE).
As for `Nc1ccc2c(n1)[nH]c1ccccc12`, the carcinogen call runs as follows: (Species: MOUSE, Strain/Sex: CDF1/FEMALE, Route: ORAL, Dose: 0, 0.08% IN DIET FOR UP TO 685 D (STUDY DURATION: 685 D), Tumor Site: Type of Lesion: LIVER: HEPATOCELLULAR ADENOMA OR CARCINOMA, BLOOD VESSELS: HEMANGIOENDOTHELIAL SARCOMA) “active; positive”; (Species: MOUSE, Strain/Sex: CDF1/MALE, Route: ORAL, Dose: 0, 0.08% IN DIET FOR UP TO 685 D (STUDY DURATION: 685 D), Tumor Site: Type of Lesion: LIVER: HEPATOCELLULAR ADENOMA OR CARCINOMA, BLOOD VESSELS: HEMANGIOENDOTHELIOMA OR HEMANGIOENDOTHELIAL SARCOMA) “active; positive”; (Species: RAT, Strain/Sex: SPRAGUE-DAWLEY/FEMALE, Route: ORAL, Dose: 0, 75 MG/KG IN 5 ML CORN OIL 1/D ON DAYS 43-47 AND 50-54 OF AGE ADMINISTERED TO RATS PLACED ON HIGH-FAT (23.5% CORN OIL)) “inactive; negative”.
With `O/N=c1\ccn(O)c2ccccc12`, the carcinogen call reads like this: (Species: MOUSE, Strain/Sex: DDD/FEMALE, Route: SUBCUTANEOUS, Dose: 53 NMOL IN 0.1 ML OLIVE OIL WITHIN 24 HR AFTER BIRTH (STUDY DURATION: 400 D), Tumor Site: Type of Lesion: LUNG: ADENOMA, INJECTION SITE: SARCOMA, HEMATOPOIETIC SYSTEM: LEUKEMIA OR LYMPHOSARCOMA, Tumor Site: Type of Lesion: LUNG: ADENOMA, INJECTION SITE: SARCOMA, HEMATOPOIETIC SYSTEM: LEUKEMIA OR LYMPHOSARCOMA) “active; positive”; (Species: RAT, Strain/Sex: BUFFALO/FEMALE, Route: GAVAGE, Dose: 1 MG/0.1 ML OR 2 MG/0.2 ML IN 60% ETHANOL SOLUTION 1/3 WK (TOTAL DOSE: 30 MG) (STUDY DURATION: 610 D), Tumor Site: Type of Lesion: GLANDULAR STOMACH: MUCOSAL CARCINOMA, MAMMARY GLAND: TUMOR, THYMUS GLAND: THYMOMA, Tumor Site: Type of Lesion: GLANDULAR STOMACH: MUCOSAL CARCINOMA, MAMMARY GLAND: TUMOR, THYMUS GLAND: THYMOMA) “active; positive”.
